Laboratory results published in article PMC11768289 (Pharmaceuticals, 2025).
Read-outs that look alike come from different tables or passages of the source.

How the values were obtained:
[1] = test system: SARS-CoV-2 isolate USA-WA1/2020; assay: microbe, parasite or virus in culture; assay type: cell-based; settings: for inhibition at 2.1 µM: Conc. 2.1 µM (0.4 × CC50); for EC50: read-out: SARS-CoV-2 EC50
A549/ACE2/TMPRSS2 cells = assay: Cell viability assay (MTS) in non-infected cells
[2] = Cell viability assay (MTS) in non-infected cells; settings: human
p97 = biological target: T1, p97 (Homo sapiens, UniProt P55072); assay: p97 biochemical assay (ATPase activity, PNP/MesG coupled); settings: 0.2 mM ATP, 5 min preincubation; for inhibition at 0.1 µM: read-out: p97 Inhib. (%) at 0.10 µM, compound 0.10 µM; for inhibition at 1 µM: read-out: p97 Inhib. (%) at 1.0 µM, compound 1.0 µM; for p97 Inhib. (%) at 0.10 µM: compound 0.10 µM
T1 construct: made in house

[3] = Severe acute respiratory syndrome coronavirus 2, A549-ACE2, 48 h, read-out: SARS-CoV-2 Inhib. (%)
[4] = tested at 0.4 × CC50, or at 50 µM if CC50 higher than 100 µM, A549/ACE2/TMPRSS2
[5] = Severe acute respiratory syndrome coronavirus 2, A549/ACE2/TMPRSS2, MOI 0.01, 48 h, mean ± standard error, read-out: SARS-CoV-2 Inhib. (%)
[6] = Severe acute respiratory syndrome coronavirus 2, A549-ACE2, 48 h
[7] = Severe acute respiratory syndrome coronavirus 2, Conc. 50 µM, A549/ACE2/TMPRSS2, MOI 0.01, 48 h, mean ± standard error, read-out: SARS-CoV-2 Inhib. (%)

T1 sequence (P55072 whole entry): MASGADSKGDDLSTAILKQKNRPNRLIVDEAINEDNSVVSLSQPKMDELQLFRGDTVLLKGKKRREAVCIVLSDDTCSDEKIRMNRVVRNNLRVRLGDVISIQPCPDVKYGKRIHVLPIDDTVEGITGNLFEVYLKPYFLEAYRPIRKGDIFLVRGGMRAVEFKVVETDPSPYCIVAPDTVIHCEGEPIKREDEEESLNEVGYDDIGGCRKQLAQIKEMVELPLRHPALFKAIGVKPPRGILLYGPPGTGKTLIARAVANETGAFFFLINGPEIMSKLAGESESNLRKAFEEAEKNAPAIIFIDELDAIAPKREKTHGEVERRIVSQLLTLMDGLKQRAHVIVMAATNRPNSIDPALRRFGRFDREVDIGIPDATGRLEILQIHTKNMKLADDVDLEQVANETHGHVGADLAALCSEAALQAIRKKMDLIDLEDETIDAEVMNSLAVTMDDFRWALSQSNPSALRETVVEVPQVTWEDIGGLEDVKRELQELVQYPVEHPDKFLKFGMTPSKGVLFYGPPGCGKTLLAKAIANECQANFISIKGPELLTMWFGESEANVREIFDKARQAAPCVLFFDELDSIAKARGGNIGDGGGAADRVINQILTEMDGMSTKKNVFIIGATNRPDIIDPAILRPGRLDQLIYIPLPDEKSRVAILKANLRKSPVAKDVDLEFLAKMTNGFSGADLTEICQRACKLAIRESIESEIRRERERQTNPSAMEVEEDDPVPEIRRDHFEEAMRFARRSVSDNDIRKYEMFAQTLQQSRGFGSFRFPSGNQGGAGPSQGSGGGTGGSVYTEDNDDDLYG

SMILES | CC50 at 48 h [2] | inhibition at 0.1 µM (p97) | inhibition at 1 µM (p97) | anti-SARS-CoV-2 activity (in words) [1, 4] | further results
Cc1cc2c(C(N)=O)cccc2n1-c1nc2c(c(NCc3ccccc3)n1)COCC2 [CB-5083, reference compound] | 0.95 µM |  |  |  | anti-SARS-CoV-2 activity (in words) [1]: minimal inhibition; inhibition at 0.38 µM [1, 3]: 6 ± 4%; CC50 (A549/ACE2/TMPRSS2 cells; non-infected A549/ACE2/TMPRSS2 cells, MTS, 48 h): highly toxic
CC#CC(=O)Nc1cccc2c1cc(C)n2-c1nc2c(c(NCc3ccccc3)n1)CCCC2 [Compound 6a, reference compound] |  | 57% | 97% | minimal inhibition | inhibition at 0.22 µM ([1]; Severe acute respiratory syndrome coronavirus 2, Conc. 0.22 µM (0.4 × CC50), A549/ACE2/TMPRSS2, MOI 0.01, 48 h, mean ± standard error, read-out: SARS-CoV-2 Inhib. (%)): 6 ± 3%
CC#CC(=O)Nc1cccc2c1cc(C)n2-c1nc2c(c(NCc3ccccc3)n1)COCC2 [Compound 6b, reference compound] |  | 38% | 95% | minimal inhibition | inhibition at 0.46 µM ([1]; Severe acute respiratory syndrome coronavirus 2, Conc. 0.46 µM (0.4 × CC50), A549/ACE2/TMPRSS2, MOI 0.01, 48 h, mean ± standard error, read-out: SARS-CoV-2 Inhib. (%)): 5%
CC#CC(=O)Nc1cccc2c1cc(C)n2-c1nc(NCc2ccccc2)cc(N2CCOCC2)n1 [Compound 8a, N-(1-(4-(Benzylamino)-6-morpholinopyrimidin-2-yl)-2-methyl-1H-indol-4-yl)but-2-ynamide] | 2.4 µM | ~90% | 97% |  | inhibition at 0.96 µM [1, 3]: 3 ± 5%
C=CC(=O)Nc1cccc2c1cc(C)n2-c1nc(NCc2ccccc2)cc(N2CCOCC2)n1 [Compound 8b, N-(1-(4-(Benzylamino)-6-morpholinopyrimidin-2-yl)-2-methyl-1H-indol-4-yl)acrylamide] | 5.2 µM | 77% | 96% |  | inhibition at 2.1 µM [1, 5]: 5 ± 8%
C=CS(=O)(=O)Nc1cccc2c1cc(C)n2-c1nc(NCc2ccccc2)cc(N2CCOCC2)n1 [Compound 8c, N-(1-(4-(Benzylamino)-6-morpholinopyrimidin-2-yl)-2-methyl-1H-indol-4-yl)ethenesulfonamide] | 5.2 µM | 65% | 89% |  | inhibition at 2.1 µM [1, 5]: 8 ± 3%
CC#CC(=O)Nc1cccc2c1cc(C)n2-c1nc(NCc2ccccc2)cc(N2CCCCC2)n1 [Compound 9a, N-(1-(4-(Benzylamino)-6-(piperidin-1-yl)pyrimidin-2-yl)-2-methyl-1H-indol-4-yl)but-2-ynamide] | 76 µM | > 90% | 100% | excellent antiviral activity | p97 Inhib. (%) at 0.10 µM (p97): 94%; EC50 [1, 6]: 6.7 ± 0.8 µM; inhibition at 30 µM [1, 3]: 98%
C=CC(=O)Nc1cccc2c1cc(C)n2-c1nc(NCc2ccccc2)cc(N2CCCCC2)n1 [Compound 9b, N-(1-(4-(Benzylamino)-6-(piperidin-1-yl)pyrimidin-2-yl)-2-methyl-1H-indol-4-yl)acrylamide] |  | 64% | 91% | markedly reduced | inhibition at 50 µM [1, 7]: 28 ± 3%
C=CS(=O)(=O)Nc1cccc2c1cc(C)n2-c1nc(NCc2ccccc2)cc(N2CCCCC2)n1 [Compound 9c, N-(1-(4-(Benzylamino)-6-(piperidin-1-yl)pyrimidin-2-yl)-2-methyl-1H-indol-4-yl)ethenesulfonamide] | 15 µM | 73% | 95% | marginal inhibition | inhibition at 5.9 µM [1, 3]: 0%
CC#CC(=O)Nc1cccc2c1cc(C)n2-c1nc(NCc2ccccc2)cc(C2CCCCC2)n1 [Compound 10a, N-(1-(4-(Benzylamino)-6-cyclohexylpyrimidin-2-yl)-2-methyl-1H-indol-4-yl)but-2-ynamide] | > 100 µM | ~90% | 100% | excellent antiviral activity | EC50 [1, 6]: 6.8 ± 0.6 µM; inhibition at 50 µM [1, 3]: 96 ± 1%
C=CC(=O)Nc1cccc2c1cc(C)n2-c1nc(NCc2ccccc2)cc(C2CCCCC2)n1 [Compound 10b, N-(1-(4-(Benzylamino)-6-cyclohexylpyrimidin-2-yl)-2-methyl-1H-indol-4-yl)acrylamide] | > 100 µM | 70% | 96% | markedly reduced | inhibition at 50 µM [1, 7]: 30 ± 9%
C=CS(=O)(=O)Nc1cccc2c1cc(C)n2-c1nc(NCc2ccccc2)cc(C2CCCCC2)n1 [Compound 10c, N-(1-(4-(Benzylamino)-6-cyclohexylpyrimidin-2-yl)-2-methyl-1H-indol-4-yl)ethenesulfonamide] | 12 µM | 68% | 95% | marginal inhibition | inhibition at 4.8 µM ([1]; Severe acute respiratory syndrome coronavirus 2, Conc. 4.8 µM (0.4 × CC50), A549/ACE2/TMPRSS2, MOI 0.01, 48 h, mean ± standard error, read-out: SARS-CoV-2 Inhib. (%)): 7 ± 3%
Cc1cc2c(C(N)=O)cccc2n1-c1nc(NCc2ccccc2)cc(C2CCCCC2)n1 [Compound 12] |  | 18% | 21% |  | p97 Inhib. (%) at 1.0 µM (p97; compound 1.0 µM): minimal inhibition
Cc1cc(OCc2nnc(SC3CCCC3)n2-c2cccnc2)ccc1-c1ccc(S(C)(=O)=O)cc1 [NMS-873, reference compound] | 4.1 µM | 5% | 84% | minimal inhibition | p97 Inhib. (%) at 0.10 µM (p97): poor inhibition; inhibition at 1.6 µM ([1]; Severe acute respiratory syndrome coronavirus 2, Conc. 1.6 µM (0.4 × CC50), A549/ACE2/TMPRSS2, MOI 0.01, 48 h, mean ± standard error, read-out: SARS-CoV-2 Inhib. (%)): 0%; fold less toxic than CB-5083 (A549/ACE2/TMPRSS2 cells; A549/ACE2/TMPRSS2 cells, relative to CB-5083): approximately 4 fold
CCC(CC)COC(=O)[C@H](C)N[P@](=O)(OC[C@H]1O[C@@](C#N)(c2ccc3c(N)ncnn23)[C@H](O)[C@@H]1O)Oc1ccccc1 [remdesivir, reference compound] | > 10 µM |  |  |  | EC50 [1, 6]: 0.044 µM; inhibition at 2 µM [1, 3]: 100%
